Laboratory results reported in US20090036466A1, “AMINO-BENZIMIDAZOLES DERIVATIVES AS INHIBITORS OF RESPIRATORY SYNCYTIAL VIRUS REPLICATION” (priority 2003, published 2009).
Where a name gives a salt, the structure may show the parent alone.

System: Respiratory Syncytial Virus
Test: microbe, parasite or virus in culture
Format: cell-based
Settings: human respiratory syncytial virus, 168 h; protection against RSV cytopathology in HeLa cells, MTT read-out seven days after infection; pEC50 = -log of EC50 in molar units
Experimental: The percent protection against cytopathology caused by viruses (antiviral activity or EC50) achieved by tested compounds and their cytotoxicity (CC50) are both calculated from dose-response curves.
Automated tetrazolium-based […] assays were used for determination of EC50 and CC50 of test compounds. Flat-bottom, 96-well plastic microtiter trays were filled with 180 μl of Eagle's Basal Medium, supplemented with 5% FCS (0% for FLU) and 20 mM Hepes buffer. Subsequently, stock solutions (7.8× final test concentration) of compounds were added in 45 μl volumes to a series of triplicate wells so as to allow simultaneous evaluation of their effects on virus- and mock-infected cells. Five five-fold dilutions were made directly in the microtiter trays using a robot system. Untreated virus controls, and HeLa cell controls were included in each test. Approximately 100 TCID50 of Respiratory Syncytial Virus was added to two of the three rows in a volume of 50 μl. The same volume of medium was added to the third row to measure the cytotoxicity of the compounds at the same concentrations as those used to measure the antiviral activity. After two hours of incubation, a suspension (4×10^5 cells/ml) of HeLa cells was added to all wells in a volume of 50 μl. The cultures were incubated at 37° C. in a 5% CO2 atmosphere. Seven days after infection the cytotoxicity and the antiviral activity was examined spectrophotometrically. To each well of the microtiter tray, 25 μl of a solution of MTT (3-(4,5-dimethylthiazol-2-yl)-2,5-diphenyltetrazolium bromide) was added. The trays were further incubated at 37° C. for 2 hours, after which the medium was removed from each cup. Solubilization of the formazan crystals was achieved by adding 100 μl 2-propanol. Complete dissolution of the formazan crystals were obtained after the trays have been placed on a plate shaker for 10 min. Finally, the absorbances were read in an eight-channel computer-controlled photometer (Multiskan MCC, Flow Laboratories) at two wavelengths (540 and 690 nm). The absorbance measured at 690 nm was automatically subtracted from the absorbance at 540 nm, so as to eliminate the effects of non-specific absorption.

In order of rising EC50:
1. Cc1cc(C)c2nc(NCCCN3CCCCC3)n(Cc3nc(C)ccc3O)c2c1 [Compound 1, 2-[4,6-dimethyl-2-(3-piperidin-1-yl-propylamino)-benzoimidazol-1-ylmethyl]-6-methyl-pyridin-3-ol]  20 nM
2. Cc1cc(C)c2nc(NCC(O)CO)n(Cc3nc(C)ccc3O)c2c1 (stereo not drawn) [Compound 4, 3-[1-(3-hydroxy-6-methyl-pyridin-2-ylmethyl)-4,6-dimethyl-1H-benzoimidazol-2-ylamino]-propane-1,2-diol]  39.8 nM
3. Cc1cc(C)c2nc(NCCCO)n(Cc3nc(C)ccc3O)c2c1 [Compound 7, 2-[2-(3-hydroxypropylamino)-4,6-dimethyl-benzoimidazol-1-ylmethyl]-6-methyl-pyridin-3-ol]  158 nM
4. Cc1cc(C)c2nc(NCCC(N)=O)n(Cc3nc(C)ccc3O)c2c1 [Compound 8, 3-[1-(3-hydroxy-6-methyl-pyridin-2-ylmethyl)-4,6-dimethyl-1H-benzoimidazol-2-ylamino]-propionamide]  158 nM
5. Cc1cc(C)c2nc(Nc3ccc(CN)cc3)n(Cc3nc(C)ccc3O)c2c1 [Compound 9, 2-[2-(4-aminomethyl-phenylamino)-4,6-dimethyl-benzoimidazol-1-ylmethyl]-6-methyl-pyridin-3-ol]  251 nM
6. CCOC(=O)CCNc1nc2c(C)cc(C)cc2n1Cc1nc(C)ccc1O [Compound 12, 3-[1-(3-hydroxy-6-methylpyridin-2-ylmethyl)-4,6-dimethyl-1H-benzoimidazol-2-ylamino]-propionic acid ethyl ester]  3160 nM

System: not given
Test: not given
Settings: not given

Compound Cc1cc(C)c2nc(NCCCN3CCCCC3)n(Cc3nc(C)ccc3O)c2c1 (as salt: salt) [Compound 1, 2-[4,6-dimethyl-2-(3-piperidin-1-yl-propylamino)-benzoimidazol-1-ylmethyl]-6-methyl-pyridin-3-ol] has a melting point of over 260 °C.

In order of falling melting point:
1. Cc1cc(C)c2nc(Nc3ccc(CN)cc3)n(Cc3nc(C)ccc3O)c2c1 (as salt: salt) [Compound 9, 2-[2-(4-aminomethyl-phenylamino)-4,6-dimethyl-benzoimidazol-1-ylmethyl]-6-methyl-pyridin-3-ol]  255 °C
2. Cc1cc(C)c2nc(NCCC(N)=O)n(Cc3nc(C)ccc3O)c2c1 (as salt: salt) [Compound 8, 3-[1-(3-hydroxy-6-methyl-pyridin-2-ylmethyl)-4,6-dimethyl-1H-benzoimidazol-2-ylamino]-propionamide]  229 °C
3. Cc1cc(C)c2nc(NCC(O)CO)n(Cc3nc(C)ccc3O)c2c1 (stereo not drawn) (as salt: salt) [Compound 4, 3-[1-(3-hydroxy-6-methyl-pyridin-2-ylmethyl)-4,6-dimethyl-1H-benzoimidazol-2-ylamino]-propane-1,2-diol]  205 °C
4. CCOC(=O)CCNc1nc2c(C)cc(C)cc2n1Cc1nc(C)ccc1O (as salt: salt) [Compound 12, 3-[1-(3-hydroxy-6-methylpyridin-2-ylmethyl)-4,6-dimethyl-1H-benzoimidazol-2-ylamino]-propionic acid ethyl ester]  180 °C
5. Cc1cc(C)c2nc(NCCCO)n(Cc3nc(C)ccc3O)c2c1 (as salt: salt) [Compound 7, 2-[2-(3-hydroxypropylamino)-4,6-dimethyl-benzoimidazol-1-ylmethyl]-6-methyl-pyridin-3-ol]  170 °C
